Entries after “also recorded” stand apart in the source; their conditions may differ.
How the values were obtained:
TCR P14 = type: binding
H-2D^b = H-2D^b (Mus musculus, UniProt P01899); set-up: species or system murine
[1] = test system: H-2D^b/peptide complexes (pMHC); set-up: species or system murine; settings: for melting temperature (Tm): pH 7.4
[2] = target: soluble T cell receptor P14; assay: SPR
endogenous CD8^+ T cells = settings: mouse, in vivo; cited from earlier work

Sequence of H-2D^b (P01899 whole entry, looked up): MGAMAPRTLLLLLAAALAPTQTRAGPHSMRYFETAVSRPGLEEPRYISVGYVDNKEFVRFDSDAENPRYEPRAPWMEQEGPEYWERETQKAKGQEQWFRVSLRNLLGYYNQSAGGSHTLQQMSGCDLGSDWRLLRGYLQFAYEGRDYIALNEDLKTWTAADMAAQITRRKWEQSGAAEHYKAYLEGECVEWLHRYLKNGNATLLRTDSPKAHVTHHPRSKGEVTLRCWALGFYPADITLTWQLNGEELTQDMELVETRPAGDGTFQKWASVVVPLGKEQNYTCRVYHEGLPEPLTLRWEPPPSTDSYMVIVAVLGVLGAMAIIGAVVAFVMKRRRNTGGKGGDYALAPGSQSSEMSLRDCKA

Substance	binding by TCR P14 (in words) (TCR P14)	conformation of p6f / p4Y side chains and H155 (H-2D^b)	distances H-2D^b W73:NH–p6:CO and H-2D^b Y156:OH–p6:NH (H-2D^b)	pMHC complex formation (H-2D^b)	thermal stability of pMHC (in words) [1]	melting temperature (Tm) [1]	other results
KAPYNfATM [V3P_F6f]	reduced P14 affinity; also recorded: significantly reduced binding by the H-2D^b/gp33-specific TCR P14	prevents the H-2D^b residue H155 to rotate counter clock wise and to assume a TCR-bound-like conformation	both distances increase in comparison to the corresponding structures with the L-amino acid	does not compromise complex formation	slight decrease in stability	64.0 °C	–
KAVYNfATM [F6f]	reduced P14 affinity; also recorded: significantly reduced binding by the H-2D^b/gp33-specific TCR P14	the side chain of p6f takes a different conformation in H-2D^b/F6f compared to H-2D^b/gp33	both distances increase in comparison to the corresponding structures with the L-amino acid	does not compromise complex formation	slight decrease in stability	61.5 °C	–
KAVYNFATM [gp33, reference compound]	–	–	–	–	–	63.5 °C	–
H-2D^b/gp33 (from UniProt P01887) (peptide-MHC)	–	–	–	–	–	–	Kd [2]: 6.3 µM
KAPFNFATM [V3P_Y4F]	–	–	–	–	–	–	recognition of Y4F-presenting infected cells by endogenous CD8^+ T cells (endogenous CD8^+ T cells): efficiently restores recognition of infected cells presenting Y4F by endogenous CD8^+ T cells
KAPYNFATM [V3P]	–	–	–	–	–	66.0 °C	–
